Like-named read-outs stand apart in the source and are kept apart here.
Key:
[1] = system: HAC15 cells; test: Steroid profile by LC/MS-MS in HAC15 cells; format: cell-based, Human; conditions: 0.5 μM
Procedure: Human adrenocortical carcinoma HAC15 and mouse corticotroph AtT20 cells were used, purchased as a kind gift by Dr. W. Rainey, and obtained from Dr. J. Tooze (European Organization for Molecular Biology), respectively. Both cell lines were cultured in 75 cm^2 flasks at 37° C. in a humidified incubator (Greiner Bio-One, Alphen a/d Rijn, the Netherlands) at 5% CO2. Dulbecco's Modified Eagle Medium F12 containing 5% fetal calf serum was used for HAC15, whereas AtT20 cells were cultured in Dulbecco's minimal essential medium (DMEM) supplemented with 10% fetal calf serum. Both mediums were supplemented with L-glutamine (2 mmol/L) and penicillin (10^5 U/L). Short tandem repeat (str) profiling using a Powerplex Kit (Promega, Leiden, the Netherlands) of HAC15 and AtT20 gave results consistent with the ATCC database, confirming the identity of both cell lines. Medium and supplements were obtained from Invitrogen, Breda, the Netherlands. Once a week, cells were harvested with trypsin (0.05%)-EDTA (0.53 mM) and resuspended in culture medium. Levoketoconazole (COR-003) and racemic ketoconazole (both from Cortendo AB) were dissolved in absolute ethanol (EtOH), according to manufacturer's instructions, and stored at −20° C. at a stock concentration of […]. At the start of each experiment, both drugs were freshly prepared and diluted in EtOH in the correct concentrations. Synacten (synthetic ACTH, Novartis Pharma A.G.) stock concentration was stored at 4° C. and dissolved in culture medium at the day of use. The final concentrations of ACTH were chosen based on a dose-response curve in HAC15 cells and previously reported studies in the literature. For HAC15, 200,000 and 100,000 cells were plated in 0.5 ml medium in 24 well plates for experiments of 1 and 3 days, respectively. For AtT20, cell amounts were 100,000 and 30,000. One day after seeding the HAC15 cells, the medium was refreshed and cells were treated 1 or 3 days in quadruplicate with levoketoconazole or racemic ketoconazole (0.05-5 μM), with or without 10 nM ACTH. To study effects of both compounds on pituitary AtT20 cells, concentrations of 0.1 to 10 μM of both drugs were used. Controls were vehicle treated. […] Media were collected after 1 or 3 days of incubation and stored at −20° C. until analysis. All cell culture experiments were carried out at least twice.
(§1) Cortisol concentrations were measured in the supernatant using a chemiluminescence immunoassay system (Immulite 2000XPi; Siemens DPC Inc., Los Angeles, Calif., USA). In addition, we carried out multi-steroid analysis by liquid chromatography/mass spectrometry (LC/MS-MS) to accurately quantify androstenedione, corticosterone, cortisol, 11-deoxycortisol, DHEA, DHEAS, progesterone, 17-hydroxyprogesterone, and testosterone. Concentrations that were tested on the LC/MS-MS were closest to 50% inhibition or maximal inhibition of cortisol as determined by the immunoassay. Steroids were quantified with respect to a calibration series, with internal standards. Steroids were quantified on a Xevo TQS LC-MS/MS (Waters Chromatography).
(§2) Statistical analysis was performed using Graphpad Prism 6.0 (Graphpad Software, San Diego, CA). Non-linear regression curve fitting program was used to calculate the half maximal inhibitory concentrations (IC50) on cortisol production. Effects of both compounds on the steroid profile were measured as absolute change compared to control and compared using the Student's t-test. When assessing differences between effects of both compounds, the percentage change was evaluated and compared in order to correct for differences in the vehicle treated control cells. Values of P<0.05 were considered statistically significant and data are presented as mean SEM.

[2] = system: primary human adrenocortical carcinoma cultures; test: Cortisol production in primary adrenocortical carcinoma cultures; format: cell-based; conditions: Homo sapiens, 72 h, 3 days, read-out: IC50 inhibition of cortisol production
Procedure: (§3) To obtain primary cultures, adrenal specimens (adrenocortical adenomas, adrenal hyperplasias and adrenocortical carcinomas) were collected after adrenalectomy at the department of Surgery, Erasmus University Medical Center, Rotterdam, the Netherlands, between April 2016 and May 2018. The study was conducted under guidelines that have been approved by the Medical Ethics Committee of the Erasmus Medical Center and informed consent was obtained from all patients. Immediately after surgery, specimens were minced into small pieces of 2-3 mm^3, washed in culture medium and centrifuged for 5 minutes at 600 g. The tissue was stored overnight in culture medium at 4° C., where after the tissue was centrifuged again and the supernatant was removed. Fragments were dissociated using 10-25 ml collagenase type 1 (2 mg/ml: Sigma-Aldrich), followed by incubation at 37° C. for up to two hours. Ficoll (GE healthcare) density gradient separation was used once or twice as required in order to separate contaminating red blood cells from the tumor cells. Cell viability and cell amount were counted by trypan blue exclusion. Dissociated cells were plated at a density of 10^5 cells per well. ACTH-secreting corticotroph pituitary adenoma tissue from patients with Cushing's disease (n=2) was available after transsphenoidal surgery. Single-cell suspensions of the pituitary adenoma tissues were prepared as previously described in detail.
(§4) Owing to a limited number of cells obtained from the specimens, not all experiments were carried out in every primary culture.
as §1, §2

[3] = system: ACTH independent hyperplasia cultures; test: Cortisol production in primary ACTH independent hyperplasia cultures; format: cell-based, human; conditions: 3 days
Procedure: as §3, with “ACTH-secreting corticotroph pituitary adenoma tissue from patients with Cushing's disease (n=2) was available after transsphenoidal surgery. Single-cell suspensions of the pituitary adenoma tissues were prepared as previously described in detail.” left out
as §1, with “Concentrations that were tested on the LC/MS-MS were closest to 50% inhibition or maximal inhibition of cortisol as determined by the immunoassay.” left out
Statistical analysis was performed using Graphpad Prism 6.0 (Graphpad Software, San Diego, CA). […] Effects of both compounds on the steroid profile were measured as absolute change compared to control and compared using the Student's t-test. […]

[4] = system: cortisol-producing adrenal adenoma cultures; test: Cortisol production in primary cortisol-producing adrenal adenoma cultures; format: cell-based, human; conditions: Homo sapiens, 72 h, 3 days, read-out: IC50 inhibition of cortisol production
Procedure: as §3, §4, §1, §2

For CC(=O)N1CCN(c2ccc(OCC3COC(Cn4ccnc4)(c4ccc(Cl)cc4Cl)O3)cc2)CC1 (racemic) [racemic ketoconazole, Ketoconazole], the “total sum of decrease of steroids” value ([1]; HAC15, ACTH) was −1,591 nmol/L, the “11-DOC absolute change vs ACTH stimulation with vehicle” value ([1]; HAC15, ACTH, 3 days) was -664.5 nmol/L and the “11-DOC percentage change vs ACTH stimulation with vehicle” value ([1]; HAC15, ACTH, 3 days) was “(−22%****)”. The “17-OHP absolute change vs ACTH stimulation with vehicle” value ([1]; HAC15, ACTH, 3 days) was -14.13 nmol/L, the “17-OHP percentage change vs ACTH stimulation with vehicle” value ([1]; HAC15, ACTH, 3 days) was “(−29%***)” and the “Androstenedione absolute change vs ACTH stimulation with vehicle” value ([1]; HAC15, ACTH, 3 days) was -661.4 nmol/L. For the same molecule, the “Androstenedione percentage change vs ACTH stimulation with vehicle” value ([1]; HAC15, ACTH, 3 days) was “(−40%*)”, the “Corticosterone absolute change vs ACTH stimulation with vehicle” value ([1]; HAC15, ACTH, 3 days) was -0.0125 nmol/L and the “Corticosterone percentage change vs ACTH stimulation with vehicle” value ([1]; HAC15, ACTH, 3 days) was “(−1.5%****)”. The “Cortisol absolute change vs ACTH stimulation with vehicle” value ([1]; HAC15, ACTH, 3 days) was -15.15 nmol/L, the “Cortisol percentage change vs ACTH stimulation with vehicle” value ([1]; HAC15, ACTH, 3 days) was “(−45%****)” and the “DHEA absolute change vs ACTH stimulation with vehicle” value ([1]; HAC15, ACTH, 3 days) was -17.04 nmol/L. For the same molecule, the “DHEA percentage change vs ACTH stimulation with vehicle” value ([1]; HAC15, ACTH, 3 days) was “(−41%***)”, the “DHEAS absolute change vs ACTH stimulation with vehicle” value ([1]; HAC15, ACTH, 3 days) was -197.4 nmol/L and the “DHEAS percentage change vs ACTH stimulation with vehicle” value ([1]; HAC15, ACTH, 3 days) was “(−35%)”. For the same molecule, the “Prog absolute change vs ACTH stimulation with vehicle” value ([1]; HAC15, ACTH, 3 days) was -0.9625 nmol/L, the “Prog percentage change vs ACTH stimulation with vehicle” value ([1]; HAC15, ACTH, 3 days) was “(−30%****)” and the “Testosterone absolute change vs ACTH stimulation with vehicle” value ([1]; HAC15, ACTH, 3 days) was -20.29 nmol/L. The “Testosterone percentage change vs ACTH stimulation with vehicle” value ([1]; HAC15, ACTH, 3 days) was “(−50%****)”, the “11-DOC absolute change vs control” value ([1]; HAC15, Basal, 3 days) was -521.2 nmol/L and the “11-DOC percentage change vs control” value ([1]; HAC15, Basal, 3 days) was “(−23%****)”. For the same molecule, the “17-OHP absolute change vs control” value ([1]; HAC15, Basal, 3 days) was -16.50 nmol/L, the “17-OHP percentage change vs control” value ([1]; HAC15, Basal, 3 days) was “(−37%****)” and the “Androstenedione absolute change vs control” value ([1]; HAC15, Basal, 3 days) was -809.0 nmol/L. For the same molecule, the “Androstenedione percentage change vs control” value ([1]; HAC15, Basal, 3 days) was “(−47%**)”, the “Corticosterone absolute change vs control” value ([1]; HAC15, Basal, 3 days) was “+0.1750 nmol/l” and the “Corticosterone percentage change vs control” value ([1]; HAC15, Basal, 3 days) was “(+19%****)”. For the same molecule, the “Cortisol absolute change vs control” value ([1]; HAC15, Basal, 3 days) was -10.93 nmol/L, the “Cortisol percentage change vs control” value ([1]; HAC15, Basal, 3 days) was “(−47%****)” and the “DHEA absolute change vs control” value ([1]; HAC15, Basal, 3 days) was -39.50 nmol/L. The “DHEA percentage change vs control” value ([1]; HAC15, Basal, 3 days) was “(−56%**)”, the “DHEAS absolute change vs control” value ([1]; HAC15, Basal, 3 days) was -496.4 nmol/L and the “DHEAS percentage change vs control” value ([1]; HAC15, Basal, 3 days) was “(−44%*)”. The “Prog absolute change vs control” value ([1]; HAC15, Basal, 3 days) was -0.3125 nmol/L, the “Prog percentage change vs control” value ([1]; HAC15, Basal, 3 days) was “(−19%****)” and the “Testosterone absolute change vs control” value ([1]; HAC15, Basal, 3 days) was -25.78 nmol/L. For the same molecule, the “Testosterone percentage change vs control” value ([1]; HAC15, Basal, 3 days) was “(−58%***)”, the “total sum of decrease of steroids” value ([1]; HAC15, basal) was −1,919 nmol/L and the IC50 ([2]; ACC no. 2, basal condition) was 76.3 nM. For the same molecule, the IC50 ([2]; ACC no. 3, basal condition) was 67.6 nM, the “IC50 inhibition of cortisol production” value ([3]; ACTH independent hyperplasia no. 1, basal condition) was “Ambiguous” and the IC50 ([3]; Homo sapiens, 72 h, ACTH independent hyperplasia no. 2, ACTH (85 μM) stimulated condition, read-out: IC50 inhibition of cortisol production) was 1390 nM. The IC50 ([4]; CPA no. 2, basal condition) was 266 nM and the IC50 ([4]; CPA no. 3, basal condition) was 138 nM.

From patent US12201632B2, “Levoketoconazole for treatment of congenital adrenal hyperplasia and primary aldosteronism” (Strongbridge Dublin Limited, priority 2018, dated 2025)
